From patent publication US20250136607A1 (REGOR PHARMACEUTICALS, INC., priority 2021, published 2025)

How the values were obtained:
[1] = molecular target: Protein arginine deiminase 4 (PAD4) (Homo sapiens, UniProt Q9UM07); experiment: PAD4 ammonia release assay; assay type: biochemical; settings: for IC50: PAD4 ammonia release assay, BAEE substrate, 60 min at RT, read-out: Average IC50 Abs; for relative potency of separated isomers in the PAD4 biochemical assay: SFC-separated stereoisomer pairs
Chain of Protein arginine deiminase 4 (PAD4) (Q9UM07 whole entry): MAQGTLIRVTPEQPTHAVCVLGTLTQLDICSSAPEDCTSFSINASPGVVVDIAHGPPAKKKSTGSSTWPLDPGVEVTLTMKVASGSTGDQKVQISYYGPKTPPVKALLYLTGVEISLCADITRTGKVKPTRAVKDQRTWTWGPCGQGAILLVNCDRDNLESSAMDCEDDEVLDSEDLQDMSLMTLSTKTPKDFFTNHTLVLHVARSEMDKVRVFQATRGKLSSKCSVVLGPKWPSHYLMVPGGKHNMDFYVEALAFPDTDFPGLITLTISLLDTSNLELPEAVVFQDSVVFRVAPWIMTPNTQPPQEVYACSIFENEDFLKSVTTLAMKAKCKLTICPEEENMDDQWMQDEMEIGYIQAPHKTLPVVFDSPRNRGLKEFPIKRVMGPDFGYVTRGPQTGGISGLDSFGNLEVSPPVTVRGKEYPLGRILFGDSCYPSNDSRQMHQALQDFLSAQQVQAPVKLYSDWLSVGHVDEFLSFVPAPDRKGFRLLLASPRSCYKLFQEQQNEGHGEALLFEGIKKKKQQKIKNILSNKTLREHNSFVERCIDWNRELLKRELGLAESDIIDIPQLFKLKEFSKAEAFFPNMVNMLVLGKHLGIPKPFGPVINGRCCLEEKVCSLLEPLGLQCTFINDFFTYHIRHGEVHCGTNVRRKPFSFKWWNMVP
Outline: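 PAD4 (20 nM, 2× working solution) was preincubated with compound for 15 min at RT in 100 mM HEPES pH 8.0, 2 mM CaCl2, 50 mM NaCl, 0.1 mM TCEP, BSA at 1.25% DMSO. BAEE (600 μM, 2× mix) reacted 60 min, then OPA/DTT/EDTA detection for 120 min. IC50 came from a 4-parameter fit, normalized to 50 μM reference (100%) and DMSO (0%).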

[2] = tested on: Citrullinated Histone H3 in dHL-60 cells (differentiated HL-60); experiment: dHL-60 Cit-H3 ELISA assay; assay type: cell-based, human; settings: Homo sapiens, HL-60, 3 h, stimulation with 25 μM A23187 for 3 h, read-out: Average IC50 Abs
Outline: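 HL-60 cells differentiated 72 h with DMF, plated at 1×10^5/well, pretreated 30 min with compound (8-point 3-fold series, 0.2% DMSO), then stimulated 3 h at 37 °C with 25 μM A23187 plus S7 nuclease. Supernatant citrullinated H3 quantified by HRP ELISA at 450 nm; IC50 by four-parameter fit.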

Row | SMILES | IC50 [1] [nM] | IC50 [2] [nM] | relative potency of separated isomers in the PAD4 biochemical assay [1]
1 | COc1cc(C(=O)N2CCC[C@@H](N)C2)cc2nc(-c3cc4cccc5c4n3CCN5CCCO)n(Cc3cnn(C)c3)c12 [Example 44, (R)-(3-aminopiperidin-1-yl)(2-(1-(3-hydroxypropyl)-2,3-dihydro-1H-pyrrolo[1,2,3-de]quinoxalin-5-yl)-7-methoxy-1-((1-methyl-1H-pyrazol-4-yl)methyl)-1H-benzo[d]imidazol-5-yl)methanone] | 100 to 500 | 500 to 5000 | 
2 | CC(C)[C@H]1CNc2cccc3cc(-c4nc5cc(C(=O)N6C[C@H]7CC[C@@H]6[C@@H]7N)cc(F)c5n4C)n1c23 [Example 106, ((1R,4R,7R)-7-amino-2-azabicyclo[2.2.1]heptan-2-yl)(7-fluoro-2-((S)-3-isopropyl-2,3-dihydro-1H-pyrrolo[1,2,3-de]quinoxalin-5-yl)-1-methyl-1H-benzo[d]imidazol-5-yl)methanone] | 100 to 500 | ≤ 100 | more potent than Example 105
3 | Cn1c(-c2cc3ccc4c(c3n2CC2CC2)NCC4)nc2cc(C(=O)N3C[C@H]4CC[C@@H]3[C@@H]4N)cc(F)c21 [Example 147, ((1R,4R,7R)-7-amino-2-azabicyclo[2.2.1]heptan-2-yl)(2-(1-(cyclopropylmethyl)-1,6,7,8-tetrahydropyrrolo[3,2-g]indol-2-yl)-7-fluoro-1-methyl-1H-benzo[d]imidazol-5-yl)methanone] | ≤ 100 | 100 to 500 | 
4 | CCN1CCc2c(ccc3cc(-c4nc5cc(C(=O)N6C[C@H]7CC[C@@H]6[C@@H]7N)cc(F)c5n4C)n(CC4CC4)c23)C1 [Example 153, ((1R,4R,7R)-7-amino-2-azabicyclo[2.2.1]heptan-2-yl)(2-(1-(cyclopropylmethyl)-7-ethyl-6,7,8,9-tetrahydro-1H-pyrrolo[2,3-f]isoquinolin-2-yl)-7-fluoro-1-methyl-1H-benzo[d]imidazol-5-yl)methanone] | 100 to 500 | 100 to 500 | 
5 | COc1cc(C(=O)N2C[C@H](N)C[C@@H](F)C2)cc2nc(-c3cc4cccc5c4n3CCN5CCCO)n(Cc3cnn(C)c3)c12 [Example 43, ((3R,5R)-3-amino-5-fluoropiperidin-1-yl)(2-(1-(3-hydroxypropyl)-2,3-dihydro-1H-pyrrolo[1,2,3-de]quinoxalin-5-yl)-7-methoxy-1-((1-methyl-1H-pyrazol-4-yl)methyl)-1H-benzo[d]imidazol-5-yl)methanone] | ≤ 100 | 500 to 5000 | 
6 | CC[C@H]1CN(CCCO)c2cccc3cc(-c4nc5cc(C(=O)N6C[C@H]7CC[C@@H]6[C@@H]7N)cc(F)c5n4C)n1c23 [Example 71, ((1R,4R,7R)-7-amino-2-azabicyclo[2.2.1]heptan-2-yl)(2-((S)-3-ethyl-1-(3-hydroxypropyl)-2,3-dihydro-1H-pyrrolo[1,2,3-de]quinoxalin-5-yl)-7-fluoro-1-methyl-1H-benzo[d]imidazol-5-yl)methanone] | ≤ 100 | ≤ 100 | more potent
7 | Cn1cc(Cn2c(-c3cc4cccc5c4n3CCN5CCCO)nc3cc(C(=O)N4C[C@@H](N)C[C@H](F)C4)cc(F)c32)cn1 [Example 46, ((3S,5S)-3-amino-5-fluoropiperidin-1-yl)(7-fluoro-2-(1-(3-hydroxypropyl)-2,3-dihydro-1H-pyrrolo[1,2,3-de]quinoxalin-5-yl)-1-((1-methyl-1H-pyrazol-4-yl)methyl)-1H-benzo[d]imidazol-5-yl)methanone] | ≤ 100 | 500 to 5000 | 
8 | Cn1c(-c2cc3ccc4cn[nH]c4c3n2CC2CC2)nc2cc(C(=O)N3C[C@H]4CC[C@@H]3[C@@H]4N)cc(F)c21 [Example 157, ((1R,4R,7R)-7-amino-2-azabicyclo[2.2.1]heptan-2-yl)(2-(8-(cyclopropylmethyl)-1,8-dihydropyrrolo[3,2-g]indazol-7-yl)-7-fluoro-1-methyl-1H-benzo[d]imidazol-5-yl)methanone] | ≤ 100 | ≤ 100 | 
9 | CCn1cc(Cn2c(-c3cc4cccc5c4n3CCN5CCCO)nc3cc(C(=O)N4C[C@H]5CC[C@@H]4[C@@H]5N)cc(F)c32)cn1 [Example 42, ((1R,4R,7R)-7-amino-2-azabicyclo[2.2.1]heptan-2-yl)(1-((1-ethyl-1H-pyrazol-4-yl)methyl)-7-fluoro-2-(1-(3-hydroxypropyl)-2,3-dihydro-1H-pyrrolo[1,2,3-de]quinoxalin-5-yl)-1H-benzo[d]imidazol-5-yl)methanone] | 100 to 500 | 500 to 5000 | 
10 | Cn1c(-c2cc3ccc(C#N)c4c3n2[C@@H](C2CC2)CN4)nc2cc(C(=O)N3C[C@H]4CC[C@@H]3[C@@H]4N)cc(F)c21 (single isomer, unassigned) [Example 115] | ≤ 100 | ≤ 100 | 
11 | CCn1cc(Cn2c(-c3cc4cccc5c4n3CCN5CCCO)nc3cc(C(=O)N4C[C@H](N)C[C@@H](F)C4)cc(F)c32)cn1 [Example 38, ((3R,5R)-3-amino-5-fluoropiperidin-1-yl)(1-((1-ethyl-1H-pyrazol-4-yl)methyl)-7-fluoro-2-(1-(3-hydroxypropyl)-2,3-dihydro-1H-pyrrolo[1,2,3-de]quinoxalin-5-yl)-1H-benzo[d]imidazol-5-yl)methanone] | ≤ 100 | 500 to 5000 | 
12 | C#CCn1c(-c2cc3cccc4c3n2CCN4CCCO)nc2cc(C(=O)N3C[C@H](N)C[C@@H](F)C3)cc(OC)c21 [Example 49, ((3R,5R)-3-amino-5-fluoropiperidin-1-yl)(2-(1-(3-hydroxypropyl)-2,3-dihydro-1H-pyrrolo[1,2,3-de]quinoxalin-5-yl)-7-methoxy-1-(prop-2-yn-1-yl)-1H-benzo[d]imidazol-5-yl)methanone] | 100 to 500 | 500 to 5000 | 
13 | Cn1c(-c2cc3ccc(S(C)(=O)=O)c4c3n2C(C2CC2)CN4)nc2cc(C(=O)N3C[C@H]4CC[C@@H]3[C@@H]4N)cc(F)c21 (stereo partly drawn) [Example 123, ((1R,4R,7R)-7-amino-2-azabicyclo[2.2.1]heptan-2-yl)(2-(3-cyclopropyl-9-(methylsulfonyl)-2,3-dihydro-1H-pyrrolo[1,2,3-de]quinoxalin-5-yl)-7-fluoro-1-methyl-1H-benzo[d]imidazol-5-yl)methanone] | ≤ 100 | ≤ 100 | 
14 | CCC1CN(CCCO)c2cccc3cc(-c4nc5cc(C(=O)N6C[C@H]7CC[C@@H]6[C@@H]7N)cc(F)c5n4C)n1c23 (stereo partly drawn) [Example 69, ((1R,4R,7R)-7-amino-2-azabicyclo[2.2.1]heptan-2-yl)(2-(3-ethyl-1-(3-hydroxypropyl)-2,3-dihydro-1H-pyrrolo[1,2,3-de]quinoxalin-5-yl)-7-fluoro-1-methyl-1H-benzo[d]imidazol-5-yl)methanone] | ≤ 100 | ≤ 100 | 
15 | Cn1c(-c2cc3ccc4c(c3n2CC2CC2)NCCS4)nc2cc(C(=O)N3C[C@H]4CC[C@@H]3[C@@H]4N)cc(F)c21 [Example 161, ((1R,4R,7R)-7-amino-2-azabicyclo[2.2.1]heptan-2-yl)(2-(9-(cyclopropylmethyl)-1,2,3,9-tetrahydro-[1,4]thiazino[2,3-g]indol-8-yl)-7-fluoro-1-methyl-1H-benzo[d]imidazol-5-yl)methanone] | ≤ 100 | ≤ 100 | 
16 | CCC1CN(CCC(N)=O)c2cccc3cc(-c4nc5cc(C(=O)N6C[C@H](N)C[C@@H](F)C6)cc(OC)c5n4C)n1c23 (stereo partly drawn) [Example 94, 3-(5-(5-((3R,5R)-3-amino-5-fluoropiperidine-1-carbonyl)-7-methoxy-1-methyl-1H-benzo[d]imidazol-2-yl)-3-ethyl-2,3-dihydro-1H-pyrrolo[1,2,3-de]quinoxalin-1-yl)propanamide] | ≤ 100 | 100 to 500 | 
17 | CCn1cc(Cn2c(-c3cc4cccc5c4n3CCN5CC(F)(F)F)nc3cc(C(=O)N4C[C@H](N)C[C@@H](F)C4)cc(F)c32)cn1 [Example 47, ((3R,5R)-3-amino-5-fluoropiperidin-1-yl)(1-((1-ethyl-1H-pyrazol-4-yl)methyl)-7-fluoro-2-(1-(2,2,2-trifluoroethyl)-2,3-dihydro-1H-pyrrolo[1,2,3-de]quinoxalin-5-yl)-1H-benzo[d]imidazol-5-yl)methanone] | 100 to 500 | 500 to 5000 | 
